Measurements from ChEMBL document CHEMBL1201862, “PubChem BioAssay data set” (2004).
Blank lines part the entries; values can stand above or below the compound they belong to. Active and inactive are the calls of the source.

Tests used:
[1] = target: Potassium voltage-gated channel subfamily KQT member 2 (Rattus norvegicus, UniProt O88943); assay: potentiation of rat KCNQ2 current – cell-based, retigabine-insensitive compounds, dose response (AID 2654); type: functional
[2] = target: Potassium voltage-gated channel subfamily KQT member 2 (Rattus norvegicus, UniProt O88943, W236L); assay: potentiation of rat KCNQ2 current – cell-based, automated electrophysiology, mechanism study for KCNQ2 potentiator project, dose response (AID 2603); type: functional
[3] = target: NACHT, LRR and PYD domains-containing protein 3 (Homo sapiens, UniProt Q96P20); assay: NALP3 inhibitors in yeast, dose response, luminescent (AID 488799); type: functional
[4] = Luminescence Cell-Based Dose Confirmation HTS to Identify Inhibitors of Platelet Dense Granule Release. [Related pubchem assays: 1663 (Primary HTS), 1678 (Summary of Project)]; type: functional
[5] = PAR1 agonist-induced platelet activation inhibition – cell-based, fluorescence, flow cytometry, human platelets, dose response (AID 2511); type: functional
[6] = target: T1, Luciferin 4-monooxygenase (Photinus pyralis, UniProt P08659); assay: inhibition of purified Photinus pyralis luciferase – biochemical, luminescence, dose response (AID 1891)
[7] = blockers of SFLLRN-triggered platelet ATP secretion – cell-based, human platelets, luminescence, dry powder, dose response (AID 493100); type: functional
[8] = target: Heat shock protein HSP 90-alpha (Homo sapiens, UniProt P07900); assay: Luminescence-based dose response biochemical high throughput screening assay for inhibitors of the Heat Shock Protein 90 (HSP90). [Related pubchem assays: 1831 (Summary AID.), 1846 (Confirmation screen.), 1789 (Primary screen.)]
[9] = target: T1, Luciferin 4-monooxygenase; assay: In vitro luciferase assay using purified luciferase. [Related pubchem assays: 1299, 1270, 1295, 1375, 1287, 1281, 1293, 1291, 1289, 1280, 465, 1364, 1282, 1372, 1365, 1370, 1367, 1366, 1266, 1373, 1292, 1290, 1302, 1371, 1283, 1271, 1294, 1374, 1368, 1369 ]
HEK293 [10] = assay: PMA/Ionomycin-induced IL-8 production in HEK293- NF-kB-Luc stable cells. [Related pubchem assays: 1299, 1295, 1375, 1287, 1281, 1293, 1291, 1289, 1280, 465, 1364, 1282, 1372, 1365, 1367, 1366, 1266, 1269, 1373, 1292, 1290, 1302, 1371, 1283, 1271, 1294, 1374, 1368, 1369 ]; type: functional, cell-based; conditions: Homo sapiens
HEK293 [11] = assay: TNF Induced NF-kB Luciferase in 293-NF-kB-Luc Stable Cells. [Related pubchem assays: 1266, 1299, 1269, 1373, 1292, 1290, 1302, 1371, 1283, 1270, 1295, 1271, 1375, 1294, 1374, 1281, 1293, 1291, 1289, 1280, 465, 1368, 1364, 1282, 1372, 1365, 1369, 1370, 1367, 1366 ]; type: functional, cell-based; conditions: Homo sapiens
Paired box protein Pax-8 = Paired box protein Pax-8 (Homo sapiens, UniProt Q06710); assay: PAX8 transcriptional activity inhibition in RMG-I – RMG-I cells, luciferase, cherry-pick, dose response (AID 687027); type: functional, cell-based;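 further: luciferase reporter driven by Pax8 target thyroperoxidase promoter measured by SteadyGlo luminescence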
[12] = HEK-293T cell viability reduction – luminescence, B-cell screen hits, cytotoxicity control for BCR NF-kB inhibitor project, dose response (AID 489021); type: functional, cell-based;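 further: HEK-293T cells carrying an NF-kB luciferase reporter; cells exposed to compound for about 14 hours before viability readout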
HEK293 [13] = assay: PMA/Ionomycin induced NF-kB luciferase assay in 293- NF-kB-Luc stable cells. [Related pubchem assays: 1299, 1270, 1295, 1375, 1287, 1281, 1293, 1291, 1289, 1280, 465, 1364, 1282, 1372, 1365, 1370, 1367, 1366, 1269, 1373, 1292, 1290, 1302, 1371, 1283, 1271, 1294, 1374, 1368, 1369 ]; type: functional, cell-based; conditions: Homo sapiens
[14] = blockers of HIV-1 envelope-mediated cell-cell fusion – cherry-pick, dose response (AID 652057); type: functional, cell-based
HEK293 [15] = assay: Cytotoxicity assay in HEK293 cells. [Related pubchem assays (depositor defined):AID1266, AID1269, AID1270, AID1271, AID1280, AID1281, AID1282, AID1283, AID1287, AID1289, AID1290, AID1291, AID1292, AID1293, AID1294, AID1295, AID1299, AID1302, AID1364, AID1365, AID1366, AID1367, AID1369, AID1370, AID1371, AID1372, AID1373, AID1374, AID1375, AID1384 …; type: functional, cell-based; conditions: Homo sapiens
[16] = off-target signal loss in HeLa-CEM21 co-culture – HeLa F-luc CTL cells, cherry-picked, counter-screen for HIV-1 Env fusion inhibitor project, dose response (AID 652040); type: functional, cell-based;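 further: potency for signal decrease marking cytotoxic or nonspecific inhibition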
[17] = blockers of HIV-1 ZM109 envelope-driven cell-cell fusion – HeLa effector, CEM target cells, luciferase, cherry-pick, dose response (AID 652058); type: functional, cell-based;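 further: luciferase signal from HIV-1 Env mediated cell-cell fusion of effector and target cells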
[18] = HIV-1 AD8 envelope cell-cell fusion blockers – cherry-pick, dose response (AID 652062); type: functional, cell-based;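 further: luciferase signal from cell-cell fusion driven by HIV-1 clade B AD8 Env; potency is for inhibitors of fusion seen as a drop in luminescence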
X-box-binding protein 1 = X-box-binding protein 1 (Homo sapiens, UniProt P17861); type: functional, Cricetulus griseus;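 further: confirmatory dose-response counter-screen serving a CHOP assay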
Sequence of X-box-binding protein 1 (P17861 whole entry): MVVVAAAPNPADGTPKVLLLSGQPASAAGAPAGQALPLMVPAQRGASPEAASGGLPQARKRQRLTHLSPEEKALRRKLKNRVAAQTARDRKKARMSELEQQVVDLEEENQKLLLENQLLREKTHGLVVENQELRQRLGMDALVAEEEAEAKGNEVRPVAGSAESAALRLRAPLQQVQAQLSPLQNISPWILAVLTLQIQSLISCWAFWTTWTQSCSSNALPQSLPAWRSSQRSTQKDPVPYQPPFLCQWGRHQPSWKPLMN

T1 sequence (P08659 whole entry): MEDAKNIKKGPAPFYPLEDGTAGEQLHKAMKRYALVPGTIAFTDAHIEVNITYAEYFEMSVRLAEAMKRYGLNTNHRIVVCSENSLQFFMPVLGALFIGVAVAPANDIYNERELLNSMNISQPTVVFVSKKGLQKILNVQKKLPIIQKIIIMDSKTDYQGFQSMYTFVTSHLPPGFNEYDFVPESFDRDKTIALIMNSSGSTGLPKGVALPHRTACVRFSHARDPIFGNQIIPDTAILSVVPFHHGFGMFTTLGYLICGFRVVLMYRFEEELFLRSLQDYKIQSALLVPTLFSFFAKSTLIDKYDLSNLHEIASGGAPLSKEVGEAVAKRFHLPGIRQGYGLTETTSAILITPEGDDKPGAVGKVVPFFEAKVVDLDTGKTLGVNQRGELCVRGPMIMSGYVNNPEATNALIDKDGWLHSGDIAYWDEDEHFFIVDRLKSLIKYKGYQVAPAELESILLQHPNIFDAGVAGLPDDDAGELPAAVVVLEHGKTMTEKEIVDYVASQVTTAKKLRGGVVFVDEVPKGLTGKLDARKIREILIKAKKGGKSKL
Sequence of Potassium voltage-gated channel subfamily KQT member 2 (Rattus norvegicus, UniProt O88943, W236L) (O88943 whole entry W236L, the tested form may be a part): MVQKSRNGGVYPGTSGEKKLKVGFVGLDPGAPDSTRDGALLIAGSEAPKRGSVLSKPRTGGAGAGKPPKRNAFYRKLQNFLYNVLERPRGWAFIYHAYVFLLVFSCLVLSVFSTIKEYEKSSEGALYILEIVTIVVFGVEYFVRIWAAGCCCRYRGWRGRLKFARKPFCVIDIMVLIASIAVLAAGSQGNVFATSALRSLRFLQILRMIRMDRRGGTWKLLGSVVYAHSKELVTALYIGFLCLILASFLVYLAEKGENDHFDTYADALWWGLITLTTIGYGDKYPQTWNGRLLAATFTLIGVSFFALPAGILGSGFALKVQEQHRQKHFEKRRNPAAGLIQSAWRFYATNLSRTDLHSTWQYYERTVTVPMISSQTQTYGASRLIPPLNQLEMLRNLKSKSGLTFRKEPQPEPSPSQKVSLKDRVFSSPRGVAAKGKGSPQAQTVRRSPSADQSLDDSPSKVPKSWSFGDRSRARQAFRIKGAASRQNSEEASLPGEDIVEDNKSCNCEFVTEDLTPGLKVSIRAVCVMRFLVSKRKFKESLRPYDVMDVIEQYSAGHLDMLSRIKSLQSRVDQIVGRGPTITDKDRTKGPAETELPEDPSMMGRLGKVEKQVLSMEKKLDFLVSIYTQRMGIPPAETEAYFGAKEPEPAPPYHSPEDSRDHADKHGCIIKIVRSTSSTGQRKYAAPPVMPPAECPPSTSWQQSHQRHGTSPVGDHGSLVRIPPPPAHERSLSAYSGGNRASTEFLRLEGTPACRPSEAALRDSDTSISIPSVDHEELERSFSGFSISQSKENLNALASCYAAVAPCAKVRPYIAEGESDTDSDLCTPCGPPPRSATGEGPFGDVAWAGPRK
Sequence of Paired box protein Pax-8 (Q06710 whole entry): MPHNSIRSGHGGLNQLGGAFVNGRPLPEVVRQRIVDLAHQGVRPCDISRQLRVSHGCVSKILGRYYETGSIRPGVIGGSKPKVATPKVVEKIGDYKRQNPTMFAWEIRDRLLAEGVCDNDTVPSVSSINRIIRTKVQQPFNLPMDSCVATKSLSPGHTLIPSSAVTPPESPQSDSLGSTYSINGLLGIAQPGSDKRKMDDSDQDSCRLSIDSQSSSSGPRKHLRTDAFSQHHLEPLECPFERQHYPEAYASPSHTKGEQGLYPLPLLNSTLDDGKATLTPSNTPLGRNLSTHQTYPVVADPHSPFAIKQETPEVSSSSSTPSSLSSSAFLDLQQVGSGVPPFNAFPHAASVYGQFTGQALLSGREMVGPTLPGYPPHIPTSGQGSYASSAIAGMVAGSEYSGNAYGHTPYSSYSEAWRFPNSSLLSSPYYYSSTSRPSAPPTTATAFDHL
Sequence of Potassium voltage-gated channel subfamily KQT member 2 (Rattus norvegicus, UniProt O88943) (O88943 whole entry): as the sequence (O88943 whole entry W236L, the tested form may be a part) above, with L236W counted along it
Sequence of NACHT, LRR and PYD domains-containing protein 3 (Q96P20 whole entry, the tested form may be a part): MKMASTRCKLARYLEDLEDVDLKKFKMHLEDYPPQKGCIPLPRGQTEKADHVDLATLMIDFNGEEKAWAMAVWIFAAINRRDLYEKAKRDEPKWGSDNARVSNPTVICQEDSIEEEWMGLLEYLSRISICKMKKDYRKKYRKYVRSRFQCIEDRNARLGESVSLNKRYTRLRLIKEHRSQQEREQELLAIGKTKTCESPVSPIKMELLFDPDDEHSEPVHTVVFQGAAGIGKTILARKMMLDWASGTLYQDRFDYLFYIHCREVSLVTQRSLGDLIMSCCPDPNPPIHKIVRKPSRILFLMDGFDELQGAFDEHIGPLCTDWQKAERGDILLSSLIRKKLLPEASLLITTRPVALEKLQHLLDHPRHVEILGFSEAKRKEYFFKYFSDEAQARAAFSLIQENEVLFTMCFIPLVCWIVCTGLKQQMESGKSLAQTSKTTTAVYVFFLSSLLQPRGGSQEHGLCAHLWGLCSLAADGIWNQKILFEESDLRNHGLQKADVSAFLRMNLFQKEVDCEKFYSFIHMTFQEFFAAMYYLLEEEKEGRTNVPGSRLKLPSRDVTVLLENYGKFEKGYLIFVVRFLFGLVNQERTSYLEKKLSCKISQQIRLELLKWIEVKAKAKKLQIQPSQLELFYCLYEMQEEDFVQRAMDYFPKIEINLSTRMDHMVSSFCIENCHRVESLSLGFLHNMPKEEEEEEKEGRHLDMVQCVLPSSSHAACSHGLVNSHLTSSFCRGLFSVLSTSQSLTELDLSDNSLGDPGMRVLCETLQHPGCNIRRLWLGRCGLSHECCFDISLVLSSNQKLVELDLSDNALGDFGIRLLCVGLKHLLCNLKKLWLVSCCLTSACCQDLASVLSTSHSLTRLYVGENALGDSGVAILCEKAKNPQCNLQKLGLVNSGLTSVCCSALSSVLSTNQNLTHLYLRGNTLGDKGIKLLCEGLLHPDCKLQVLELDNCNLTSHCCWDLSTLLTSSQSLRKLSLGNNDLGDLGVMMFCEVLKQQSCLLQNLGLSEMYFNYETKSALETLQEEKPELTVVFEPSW

EC50 [1]: 4.45 µM (active)
EC50 [2]: 7.25 µM (active)
Structure (SMILES): S=C(Nc1ccc(Oc2ccccc2)cc1)Nc1cccnc1

Structure (SMILES): c1ccc(OCc2nnnn2-c2ccccc2)cc1
IC50 [3]: 6 µM (active)

Structure (SMILES): Cc1ccc(-c2c(C#N)c(N)n(-c3ccc(C)cc3)c(=O)c2C#N)cc1
EC50 [4]: 2.3 µM (active)
EC50 [5]: < 3 µM (active)
EC50 [6]: > 112 µM (not active)
AC50 [7]: 9.08 µM (active)

Structure (SMILES): O=C(CN1C(=O)c2ccccc2S1(=O)=O)N1CCc2ccccc21
IC50 [8]: 35.3 µM (not active)
EC50 [9]: > 8 µM (not active)
EC50 (HEK293 [10]): > 8 µM (not active)
EC50 (HEK293 [11]): > 8 µM (not active)
AC50 (Paired box protein Pax-8): 4.88 µM (active)
IC50 [12]: > 80 µM (inactive)
EC50 (HEK293 [13]): 0.53 µM (active)
AC50 [14]: 2.89 µM (active)
EC50 (HEK293 [15]): > 8 µM (inactive)
AC50 [16]: 3.84 µM (active)
AC50 [17]: 8.62 µM (active)
AC50 [18]: 3.89 µM (active)

Absolute IC50 (XBP1) (X-box-binding protein 1): 10 µM
Structure (SMILES): O=C1CC(c2ccccc2Cl)CC(=O)C1=CNc1ccccc1 (stereo not given)
